Here are results for 6 compounds from US20050123514A1, “Increased transduction using ABC transporter substrates and/or inhibitors” (priority 2003, published 2005).

In assay [1] the test system is human CD34 positive cells. In kind it is cell-based. The note with it: for effect on transduction efficiency (in words): summary statements.
Assay [2] concerns CD34+ cells from mobilized peripheral blood. In kind it is cell-based, human. How it is done:
(§1) Supernatant was collected repeatedly 24 to 72 hours after transfection, pooled, and then concentrated by ultracentrifugation at 10,000 rpm for 12 hours. Clinical grade vector was packaged similarly in 293F cells under more stringent laboratory conditions. Supernatant was harvested at 24 hours and 36 hours after transfection. The supernatant is filtered through a series of cartridge filters of decreasing pore diameter, then concentrated by ultrafiltration. Benzonase is added by diafiltration to destroy contaminating plasmid and cellular DNA. The material is applied to a Sephacryl-500 gel filtration column then filtered through a 0.22-micron filter.
Cells: Frozen CD34 positive cells (greater than 98% purity) derived from adult bone marrow, adult G-CSF mobilized peripheral blood and cord blood were purchased from AllCells (Berkeley, Calif.). Additional peripheral blood CD34 cells mobilized by cyclophosphamide and GCSF and were generous gifts from Dr. Christian Chabannon.
(§2) Research grade vector transduction with VRX430: CD34+ cells were thawed according to manufacturer's specifications, then cultured at 37° C. for 1 hour. Cells were cultured with an inhibitor at 37° C. for 0 to 90 minutes before addition of vector. MOI 25 to 50 of vector was added to plates coated with 1.5 μg/cm^2 Retronectin (Takara, Japan), then cells were added to the plate and cultured at 37° C.. Twenty-four hours after inhibitor addition, the cells were washed free of vector and drug and were resuspended in fresh medium containing MOI 25 of vector and cultured at 37° C.. CD34+ cells were cultured in IMDM (Invitrogen, Carlsbad, Calif.) supplemented with 1× BIT (Stem Cell Technologies, Vancouver BC) and 25 to 100 ng/ml of TPO, Flt-3L and SCF (R&D Systems, Minneapolis, Minn.). Cells used in in vitro assays were washed free of vector four days after the start of transduction. Cells transplanted into mice were washed free of vector two days after the start of transduction and immediately transplanted into mice.
Cell culture: Four days after transduction CD34 positive cells were washed free of vector and maintained in liquid culture in IMDM plus 1× BIT supplemented with 25 ng/mL TPO, SCF, and Flt-3L, or plated in CFU and LTC-IC assays. Five hundred to 1000 cells were plated in methylcellulose (H3231, Stem Cell Technologies, Vancouver, BC) supplemented with […] and 1 U/mL EPO. Colony growth was scored two weeks after plating and was analyzed by flow cytometry for GFP expression. One to 3×10^5 cells were overlayed upon MS-5 stromal cells for the LTC-IC assay. The cells underwent demidepopulation weekly, in which half of the medium was removed and replaced with fresh medium. The cells collected in each demidepopulation were analyzed by flow cytometry. After 5 weeks, a mix of adherent and non-adherent cells was plated into methylcellulose supplemented as above for formation of secondary CFU. Colonies were scored three weeks after plating and analyzed for GFP expression by flow cytometry.
CD34+ cells isolated from mobilized peripheral blood were cultured short and long term.

For assay [3], the system named is SCID repopulating cells (SRC). As to the kind of experiment: NOD-SCID xenotransplantation of transduced cord blood CD34+ cells (SRC), primary transplant. The class given is in vivo, NOD-SCID mice. On the procedure:
(§3) Mice: NOD.CB17-Prkdcscid/J (formerly known as NOD/LtSz-Prkdcscid/J) mice were purchased from Jackson Laboratories (Bar Harbor, Me.) and housed in microisolatorcages at Bioqual, Inc (Rockville, Md.). All experiments were approved by the ACUC. 6 to 7 week old mice were sublethally irradiated with 350 cGy (^137Cs source), then transplanted the next day with 2×10^5 cord blood CD34+ cells. Mice sacrificed at 6 to 8 weeks were tested for EGFP expression in CD45+, CD34+, CD33+, CD19+ and CD3+ subsets from the bone marrow using PE conjugated antibodies (clones HI30, 581, WM53, HIB19, UCHT1, respectively, Pharmingen, San Diego, Calif.) by flow cytometry (FACSCaliber, Becton Dickinson, Franklin Lakes, N.J.). Mice sacrificed at 14 weeks were analyzed for EGFP expression in the CD45+, CD34+, CD33+, CD19+ and CD3+ subsets in the marrow, spleen and thymus. For secondary transplantation, half of the total marrow recovered from the primary mouse was transplanted into 350 cGy irradiated secondary recipient NOD.CB17-Prkdcscid/J mice. Mice were sacrificed after 8 weeks and analyzed for EGFP expression in the CD45+, CD33+ and CD19 subsets from the bone marrow.

Assay [4] concerns Hematopoietic stem cells (hsc). The note with it: research grade vector. On the procedure: as §1
as §2, with “Cells transplanted into mice were washed free of vector two days after the start of transduction and immediately transplanted into mice.” left out
Cell culture: Four days after transduction CD34 positive cells were washed free of vector and maintained in liquid culture in IMDM plus 1× BIT supplemented with 25 ng/mL TPO, SCF, and Flt-3L, or plated in CFU and LTC-IC assays. […] Colony growth was scored two weeks after plating and was analyzed by flow cytometry for GFP expression. […] The cells collected in each demidepopulation were analyzed by flow cytometry. […] Colonies were scored three weeks after plating and analyzed for GFP expression by flow cytometry.

Assay [5] deals with SCID repopulating cells (SRC). As to the kind of experiment: Secondary transplantation of SRCs in NOD/SCID mice. In kind it is in vivo. On the procedure:
as §3
NOD-SCID mice were given a primary transplantation of stem cells isolated from cord blood in the presence of antibody to the murine IL-2 receptor beta chain to inhibit natural killer cell lysis of the transplanted cells. […] Bone marrow was isolated at 14 weeks post transplantation. Total recovered cells (a mixture of human and mouse) were transplanted into naïve NOD/SCID recipient mice at 15-20×10^6 cells per mouse. During secondary transplantation, mice were not given antibody to the murine IL-2 receptor due to inhibitory cost; therefore the percentage engraftment is much lower. Mice were sacrificed at 8 weeks post transplantation, and the percentage of GFP-positive human cells was assessed by flow cytometry (Table 3).

Where [6] appears, read: bone marrow, 8 weeks post secondary transplantation, individual mice, cells transduced + verapamil.

Several values for one entry are separate records, joined by “and”; a condition that tells them apart may be missing. Identical values can stand only once. Like-named read-outs stand apart in the source and are kept apart here.

Take `COc1ccc([C@@H]2Sc3ccccc3N(CCN(C)C)C(=O)[C@@H]2OC(C)=O)cc1` [diltiazem]: the “effect on transduction efficiency (in words)” value (shortened to “effect”) in assay [1] was “increased transduction to levels similar to verapamil”. In addition, in assay [2], the “CD34 GFP” value is listed as 19%, the “CFU GFP” value was found to be 15%, the “LTC GFP” value stood at 23% and the “Secondary CFU GFP” value amounted to 26%. The “effect” value in assay [2] is given as “significant increase in transduction efficiency”.

With `CCCN(CCC)S(=O)(=O)c1ccc(C(=O)O)cc1` [probenecid], the increase in transduction result in assay [1] (hematopoietic cells) is “less than 2 fold”. Also, in assay [2], the “CD34 GFP” value was found to be 9%, the “CFU GFP” value came out at 8%, the “LTC GFP” value was determined as 11% and the “Secondary CFU GFP” value came to 4%. In assay [2], the “effect” value was “did not increase transduction efficiency”.

With `COC(=O)[C@H]1[C@H]2C[C@@H]3c4[nH]c5cc(OC)ccc5c4CCN3C[C@H]2C[C@@H](OC(=O)c2cc(OC)c(OC)c(OC)c2)[C@@H]1OC` [reserpine], the “effect” value in assay [1] is reported as “did not increase transduction efficiency”. In addition, in assay [2], the “CD34 GFP” value is given as 3%, the “CFU GFP” value is reported as 5%, the “LTC GFP” value turned out to be 5% and the “Secondary CFU GFP” value turned out to be 3%. Further, the “effect” value in assay [2] was “did not increase transduction efficiency”.

As to `CC(C)c1nc(CN(C)C(=O)N[C@H](C(=O)N[C@@H](Cc2ccccc2)C[C@H](O)[C@H](Cc2ccccc2)NC(=O)OCc2cncs2)C(C)C)cs1` [ritonavir], in assay [2], the “effect” value is on record as “increased transduction efficiency”. Besides, the “percentage of GFP-expressing cells compared with diltiazem or verapamil” value in assay [2] (mPB short and long term cultures, ritonavir 5 μM or 20 μM, FIG. 3) is given as “did not increase the percentage of GFP-expressing cells as well as diltiazem or verapamil”.

`COc1ccc(CCN(C)CCCC(C#N)(c2ccc(OC)c(OC)c2)C(C)C)cc1OC` (stereo not drawn) [verapamil]: the “frequency and distribution of hematopoietic subsets” value in assay [3] (NOD-SCID mice, cells transduced in verapamil) is on record as “unchanged”. Besides, in assay [3] (SRC recovered from the bone marrow of NOD-SCID mice), the “increase in SRC transduction over levels in the absence of verapamil” value was “three to four-fold”. For the same compound, in assay [3] (bone marrow and spleen, 14 weeks post-hsc transfer, FIG. 5), the “GFP expression in repopulating cells” value is “high percentage of GFP positive repopulating stem cells”. Moreover, the “GFP expression in human CD45, CD34, CD33, CD19 cells” value in assay [3] (bone marrow, 6-8 weeks post-hsc transfer, 50 and 75 μg/ml verapamil pooled, FIG. 4) is reported as “significantly higher percentage of GFP expressing cells”. Also, in assay [4] (long-term cultures), the “copy numbers, increase versus no verapamil” value amounted to 8 fold. In addition, in assay [4] (short-term cultures), the “copy numbers, increase versus no verapamil” value is 2 fold. The “percentage of transduced cells” value in assay [4] (with verapamil, both short and long term cultures) is given as 70-80%. Moreover, the “percentage of GFP-positive cells versus transduced without drug” value in assay [5] (CD45, CD19 and CD33 lineages, secondary transplantation) was “increased percentage of GFP-positive cells”. In addition, in assay [5] (setting [6]), the “% CD45 Engraft.” value is <0.1% and 0.3%; the “% GFP CD19” value was 100% and 98%; the “% GFP CD33” value is 38% and 51%; the “% GFP CD45” value is 59% and 97%. Further, in assay [2], the CD34 copy number is 3.2 and the “Secondary CFU GFP” value amounted to 56%.

With sodium orthovanadate, the results for the “effect” value in assay [1] and in assay [2] were “did not increase transduction efficiency” and “reduced efficiency of gene transfer”, respectively.
